The text below walks through data of patent publication US9809623B2, “α4β7 peptide monomer and dimer antagonists” (Protagonist Therapeutics, Inc., priority 2014, dated 2017).

Data set [1] can be described thus: Simulated Intestinal Fluid (SIF) Stability Assay. Format: in vitro ADME, porcine. The following applies: for half-life at 22 μM: pig. In short, it runs like this: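 Intestinal stability: percent peptide remaining over time, by LC-MS/MS peak-area ratio to internal standard, fitted to first-order decay for half-life. Conditions: 22 μM peptide, 1% pancreatin in pH 6.5 blank FASSIF, 37 °C.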

The target of a further data set is T1, α4β1 (Homo sapiens, UniProt P05556+P13612, DEL729-798).
T1 construct: purchased R&D Systems 5668-A4
Put plainly: α4β1-VCAM Competition ELISA. Format: binding. The gist of the method:
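ELISA plates were coated with VCAM-1 Fc at 400 ng/well. Peptide dilutions (highest final 100 μM) and 60 nM α4β1 were incubated 2 h at 37 °C in pH 7.6 Tris buffer containing 1 mM Mn2+ or Mg2+. Integrin retained on the plate was detected by 9F10 antibody, then HRP secondary, with TMB absorbance at 450 nm.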
(An ELISA detects its analyte on a solid surface through an enzyme-linked reagent.)

In another data set the target is T2, rh integrin α4β7 (Homo sapiens, UniProt P13612+P26010).
T2 construct: purchased R&D Systems 5397-A30
Nature of the data set: α4β7-MAdCAM Competition ELISA. The data set is classed as binding. The gist of the method: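 Competition read-out was A450 after anti-human IgG1-HRP and TMB detection of bound recombinant human MAdCAM-1 (10 nM final). Peptides were serially diluted 3-fold from a final 10 μM and equilibrated 1 h at room temperature on nickel-captured α4β7 (800 ng/well). The buffer was Tris pH 7.6 with 1 mM Mn2+ or Mg2+.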

[2] abbreviates: Table 4-B, read-out: ELISA_α4β1 IC50.
The mark [3] stands for this setting: Table 4-B, read-out: ELISA α4β7 IC50.
[4] abbreviates: simulated intestinal fluid (SIF) with 1% porcine pancreatin, pH 6.5, Table 3-B, > means experiment was stopped at that time and half life was not reached, read-out: Stabilty SIF t1/2.
Where [5] appears, read: Table 3-B, Selectivity (α4β1), range classes, read-out: α4β1 ELISA IC50.
Setting [6] is: Table 3-B, Potency (α4β7), range classes, read-out: α4β7 ELISA IC50.

Usually IC50 stands for the midpoint of a concentration-inhibition curve.

“And” between values parts separate entries of the source, which are not always exact repeats. Equal values may be shown once. Read-outs that look alike come from different tables or passages of the source. Numbered stars: 1 amine (or outer) side, 2 acyl side, 3 side chain; on linkers, the order of the positions; unused ones are H or OH. Bridge positions count the residues as written; N and C are the ends. Square brackets hold non-standard residues; d marks the D form. Peptide text beside a SMILES is read from it. I, II: the chains in the order shown. Phe(4-COOH) = N[C@@H](Cc1ccc(C(=O)O)cc1)C(=O)O; Phe(4-tBu) = CC(C)(C)c1ccc(C[C@H](N)C(=O)O)cc1; Bip = N[C@@H](Cc1ccc(-c2ccccc2)cc1)C(=O)O; Diglycolyl = O=C(COCC(=O)[*:2])[*:1]; NMeR = CN[C@@H](CCCNC(=N)N)C(=O)O; β3hE = N[C@@H](CCC(=O)O)CC(=O)O; NMeK = CN[C@@H](CCCCN)C(=O)O; Pen = CC(C)(S)[C@H](N)C(=O)O

T2 sequence (P13612 34-977 limits assumed): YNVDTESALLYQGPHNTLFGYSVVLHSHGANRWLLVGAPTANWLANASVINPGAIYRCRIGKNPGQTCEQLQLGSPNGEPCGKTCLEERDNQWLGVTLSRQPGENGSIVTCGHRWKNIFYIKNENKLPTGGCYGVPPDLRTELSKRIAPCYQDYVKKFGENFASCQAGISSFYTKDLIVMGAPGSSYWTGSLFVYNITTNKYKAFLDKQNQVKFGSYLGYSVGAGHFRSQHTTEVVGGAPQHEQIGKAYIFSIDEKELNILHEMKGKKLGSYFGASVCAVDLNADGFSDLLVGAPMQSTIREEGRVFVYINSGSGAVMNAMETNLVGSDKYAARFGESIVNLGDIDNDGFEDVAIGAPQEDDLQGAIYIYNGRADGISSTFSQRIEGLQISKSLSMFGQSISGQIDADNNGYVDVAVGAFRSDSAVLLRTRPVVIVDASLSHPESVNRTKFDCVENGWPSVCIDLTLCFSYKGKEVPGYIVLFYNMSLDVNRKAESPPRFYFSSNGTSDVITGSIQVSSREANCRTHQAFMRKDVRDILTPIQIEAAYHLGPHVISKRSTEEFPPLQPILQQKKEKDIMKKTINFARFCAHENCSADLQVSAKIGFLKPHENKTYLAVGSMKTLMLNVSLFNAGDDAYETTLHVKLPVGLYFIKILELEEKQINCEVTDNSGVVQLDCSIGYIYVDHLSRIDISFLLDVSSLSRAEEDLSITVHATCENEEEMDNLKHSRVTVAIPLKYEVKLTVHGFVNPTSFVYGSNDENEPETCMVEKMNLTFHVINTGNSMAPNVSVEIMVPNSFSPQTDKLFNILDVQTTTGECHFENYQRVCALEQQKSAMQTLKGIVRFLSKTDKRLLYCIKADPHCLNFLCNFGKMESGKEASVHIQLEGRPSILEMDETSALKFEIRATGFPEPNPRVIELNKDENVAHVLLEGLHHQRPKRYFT
T2 sequence (P26010 20-723 limits assumed): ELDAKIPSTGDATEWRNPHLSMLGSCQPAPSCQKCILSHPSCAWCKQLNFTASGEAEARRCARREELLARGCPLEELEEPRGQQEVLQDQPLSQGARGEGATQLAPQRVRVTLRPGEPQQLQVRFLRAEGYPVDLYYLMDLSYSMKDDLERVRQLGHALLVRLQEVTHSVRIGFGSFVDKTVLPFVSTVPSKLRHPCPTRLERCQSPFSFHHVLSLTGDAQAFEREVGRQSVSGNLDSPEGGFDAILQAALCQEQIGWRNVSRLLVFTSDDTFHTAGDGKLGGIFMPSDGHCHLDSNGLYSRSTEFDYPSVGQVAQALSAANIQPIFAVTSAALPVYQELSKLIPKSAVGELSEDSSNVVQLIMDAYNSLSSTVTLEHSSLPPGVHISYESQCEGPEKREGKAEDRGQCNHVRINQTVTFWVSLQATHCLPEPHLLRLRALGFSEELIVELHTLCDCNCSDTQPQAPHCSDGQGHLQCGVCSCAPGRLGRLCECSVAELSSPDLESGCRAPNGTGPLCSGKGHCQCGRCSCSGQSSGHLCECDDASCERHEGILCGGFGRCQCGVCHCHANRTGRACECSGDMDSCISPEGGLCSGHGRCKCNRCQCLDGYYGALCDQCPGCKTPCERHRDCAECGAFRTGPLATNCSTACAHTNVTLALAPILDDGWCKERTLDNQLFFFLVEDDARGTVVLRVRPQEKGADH
T1 sequence (P13612 34-977 limits assumed, stated change not applied): as the sequence (P13612 34-977 limits assumed) above
T1 sequence (P05556 21-728 limits assumed, stated change not applied): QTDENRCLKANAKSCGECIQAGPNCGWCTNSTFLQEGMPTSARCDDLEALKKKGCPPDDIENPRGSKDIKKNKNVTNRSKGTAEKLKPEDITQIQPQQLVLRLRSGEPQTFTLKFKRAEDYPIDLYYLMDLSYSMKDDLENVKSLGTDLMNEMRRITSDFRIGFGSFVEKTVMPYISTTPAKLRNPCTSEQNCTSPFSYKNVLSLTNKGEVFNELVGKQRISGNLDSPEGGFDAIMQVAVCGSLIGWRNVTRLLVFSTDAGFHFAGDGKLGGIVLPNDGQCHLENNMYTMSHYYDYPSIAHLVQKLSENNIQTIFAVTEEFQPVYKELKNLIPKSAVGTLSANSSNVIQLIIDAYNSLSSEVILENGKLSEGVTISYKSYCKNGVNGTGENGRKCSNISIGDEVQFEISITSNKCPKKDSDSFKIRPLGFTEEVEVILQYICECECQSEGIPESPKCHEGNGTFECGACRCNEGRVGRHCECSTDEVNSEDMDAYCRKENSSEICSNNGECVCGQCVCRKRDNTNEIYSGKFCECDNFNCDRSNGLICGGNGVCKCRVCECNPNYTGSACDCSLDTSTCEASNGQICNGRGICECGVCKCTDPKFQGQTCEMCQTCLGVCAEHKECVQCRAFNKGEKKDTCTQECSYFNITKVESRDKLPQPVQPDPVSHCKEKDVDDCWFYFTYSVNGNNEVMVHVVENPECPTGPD

Regarding `CC(=O)N[C@@H]1C(=O)N(C)[C@@H](CCCNC(=N)N)C(=O)N[C@@H](CO)C(=O)N[C@@H](CC(=O)O)C(=O)N[C@@H]([C@@H](C)O)C(=O)N[C@@H](CC(C)C)C(=O)N[C@H](C(=O)N[C@@H](Cc2ccc(C(C)(C)C)cc2)C(=O)N[C@@H](CCC(=O)O)CC(=O)N[C@H](CCCCNC(=O)COCC(=O)NCCCC[C@@H](NC(=O)C[C@H](CCC(=O)O)NC(=O)[C@H](Cc2ccc(C(C)(C)C)cc2)NC(=O)[C@H]2NC(=O)[C@H](CC(C)C)NC(=O)[C@H]([C@@H](C)O)NC(=O)[C@H](CC(=O)O)NC(=O)[C@H](CO)NC(=O)[C@H](CCCNC(=N)N)N(C)C(=O)[C@@H](NC(C)=O)C(C)(C)SSC2(C)C)C(N)=O)C(N)=O)C(C)(C)SSC1(C)C` [compound 218, [Ac-Pen-(N-Me-Arg)-Ser-Asp-Thr-Leu-Pen-Phe(4-tBu)-(β-homoGlu)-(D-Lys)-NH2]2-DIG] (I: Ac-[Pen][NMeR]SDTL[Pen][Phe(4-tBu)][β3hE][dK]-NH2 / II: Ac-[Pen][NMeR]SDTL[Pen][Phe(4-tBu)][β3hE][dK]-NH2; disulfide I:1-I:7, II:1-II:7; linker I:10-II:10 via Diglycolyl), the “SIF (porcine), printed in hr in the cell” value in data set [1] (Table 4-C, t1/2) is 11 h. Further, the results for the concentration for half-maximal inhibition (IC50) at α4β1 (setting [2]) and at rh integrin α4β7 (setting [3]) were 490 nM and 2.8 nM, respectively.
`CC(=O)N[C@@H]1C(=O)N(C)[C@@H](CCCNC(=N)N)C(=O)N[C@@H](CO)C(=O)N[C@@H](CC(=O)O)C(=O)N[C@@H]([C@@H](C)O)C(=O)N[C@@H](CC(C)C)C(=O)N[C@H](C(=O)N[C@@H](Cc2ccc(-c3ccccc3)cc2)C(=O)N[C@@H](CCC(=O)O)CC(=O)N(C)[C@@H](CCCCNC(=O)COCC(=O)NCCCC[C@@H](C(N)=O)N(C)C(=O)C[C@H](CCC(=O)O)NC(=O)[C@H](Cc2ccc(-c3ccccc3)cc2)NC(=O)[C@H]2NC(=O)[C@H](CC(C)C)NC(=O)[C@H]([C@@H](C)O)NC(=O)[C@H](CC(=O)O)NC(=O)[C@H](CO)NC(=O)[C@H](CCCNC(=N)N)N(C)C(=O)[C@@H](NC(C)=O)C(C)(C)SSC2(C)C)C(N)=O)C(C)(C)SSC1(C)C` [compound 150] (I: Ac-[Pen][NMeR]SDTL[Pen][Bip][β3hE][NMeK]-NH2 / II: Ac-[Pen][NMeR]SDTL[Pen][Bip][β3hE][NMeK]-NH2; disulfide I:1-I:7, II:1-II:7; linker I:10-II:10 via Diglycolyl): the half-life at 22 μM in data set [1] (setting [4]) is over 5 h. In addition, the IC50 at α4β1 (setting [5]) was 1000 to 10000 nM; at rh integrin α4β7 (setting [6]) it was under 10 nM.
For `CC(=O)N[C@@H]1C(=O)N(C)[C@@H](CCCNC(=N)N)C(=O)N[C@@H](CO)C(=O)N[C@@H](CC(=O)O)C(=O)N[C@@H]([C@@H](C)O)C(=O)N[C@@H](CC(C)C)C(=O)N[C@H](C(=O)N[C@@H](Cc2ccc(C(C)(C)C)cc2)C(=O)N[C@@H](CCC(=O)O)CC(=O)O)C(C)(C)SSC1(C)C` [compound 152] (Ac-[Pen][NMeR]SDTL[Pen][Phe(4-tBu)][β3hE]-OH; disulfide 1-7), in that order: 2.45 h, 100 to 500 nM and under 10 nM.
Regarding `CC(=O)N[C@@H]1C(=O)N(C)[C@@H](CCCNC(=N)N)C(=O)N[C@@H](CO)C(=O)N[C@@H](CC(=O)O)C(=O)N[C@@H]([C@@H](C)O)C(=O)N[C@@H](CC(C)C)C(=O)N[C@H](C(=O)N[C@@H](Cc2c[nH]c3ccccc23)C(=O)N[C@H](CCCCNC(=O)COCC(=O)NCCCC[C@@H](NC(=O)[C@H](Cc2c[nH]c3ccccc23)NC(=O)[C@H]2NC(=O)[C@H](CC(C)C)NC(=O)[C@H]([C@@H](C)O)NC(=O)[C@H](CC(=O)O)NC(=O)[C@H](CO)NC(=O)[C@H](CCCNC(=N)N)N(C)C(=O)[C@@H](NC(C)=O)C(C)(C)SSC2(C)C)C(N)=O)C(N)=O)C(C)(C)SSC1(C)C` [compound 209, (Ac-Pen-N-Me-R-S-D-T-L-Pen-W-k-NH2)2-DIG] (I: Ac-[Pen][NMeR]SDTL[Pen]W[dK]-NH2 / II: Ac-[Pen][NMeR]SDTL[Pen]W[dK]-NH2; disulfide I:1-I:7, II:1-II:7 (inferred); linker I:9-II:9 via Diglycolyl (inferred)), the half-life at 22 μM in data set [1] (simulated intestinal fluid (SIF) with 1% porcine pancreatin, pH 6.5, Table 4-C, t1/2, > means assay stopped at that time, read-out: SIF (porcine) Min) is over 3 h. For the same molecule, the IC50 at α4β1 (setting [2]) is 368 nM; at rh integrin α4β7 (setting [3]) it was 2.3 nM.
For `CC(=O)N[C@@H]1C(=O)N(C)[C@@H](CCCNC(=N)N)C(=O)N[C@@H](CO)C(=O)N[C@@H](CC(=O)O)C(=O)N[C@@H]([C@@H](C)O)C(=O)N[C@@H](CC(C)C)C(=O)N[C@H](C(=O)N[C@@H](Cc2ccc(C(C)(C)C)cc2)C(=O)N[C@@H](CCC(=O)O)CC(=O)N[C@H](CCCCNC(=O)COCC(=O)NCCCC[C@@H](NC(=O)C[C@H](CCC(=O)O)NC(=O)[C@H](Cc2ccc(C(C)(C)C)cc2)NC(=O)[C@H]2NC(=O)[C@H](CC(C)C)NC(=O)[C@H]([C@@H](C)O)NC(=O)[C@H](CC(=O)O)NC(=O)[C@H](CO)NC(=O)[C@H](CCCNC(=N)N)N(C)C(=O)[C@@H](NC(C)=O)C(C)(C)SSC2(C)C)C(N)=O)C(N)=O)C(C)(C)SSC1(C)C` [compound 132] (I: Ac-[Pen][NMeR]SDTL[Pen][Phe(4-tBu)][β3hE][dK]-NH2 / II: Ac-[Pen][NMeR]SDTL[Pen][Phe(4-tBu)][β3hE][dK]-NH2; disulfide I:1-I:7, II:1-II:7; linker I:10-II:10 via Diglycolyl), in data set [1] (Table 3-B, alone or in parentheses after >360), the “Stabilty SIF t1/2, in hr” value is 11 h. Further, the half-life at 22 μM was over 6 h in data set [1] (simulated intestinal fluid (SIF) with porcine pancreatin, pH 6.5, Table 3-B, > means experiment was stopped at that time and half life was not reached, read-out: Stabilty SIF t1/2); 10.7 h in data set [1] (simulated intestinal fluid (SIF) with porcine pancreatin, pH 6.5, Table 3-B, alone or in parentheses after >360, read-out: Stabilty SIF t1/2, in hr (converted)). The 50% inhibitory concentration (IC50) at α4β1 (setting [5]) is 100 to 500 nM and 500 to 1000 nM; at rh integrin α4β7 (setting [6]), under 10 nM.
Turning to `CC(=O)N[C@@H]1C(=O)N(C)[C@@H](CCCNC(=N)N)C(=O)N[C@@H](CO)C(=O)N[C@@H](CC(=O)O)C(=O)N[C@@H]([C@@H](C)O)C(=O)N[C@@H](CC(C)C)C(=O)N[C@H](C(=O)N[C@@H](Cc2ccc(C(=O)O)cc2)C(=O)N[C@@H](CCC(=O)O)CC(=O)N(C)[C@@H](CCCCNC(=O)COCC(=O)NCCCC[C@@H](C(N)=O)N(C)C(=O)C[C@H](CCC(=O)O)NC(=O)[C@H](Cc2ccc(C(=O)O)cc2)NC(=O)[C@H]2NC(=O)[C@H](CC(C)C)NC(=O)[C@H]([C@@H](C)O)NC(=O)[C@H](CC(=O)O)NC(=O)[C@H](CO)NC(=O)[C@H](CCCNC(=N)N)N(C)C(=O)[C@@H](NC(C)=O)C(C)(C)SSC2(C)C)C(N)=O)C(C)(C)SSC1(C)C` [compound 148] (I: Ac-[Pen][NMeR]SDTL[Pen][Phe(4-COOH)][β3hE][NMeK]-NH2 / II: Ac-[Pen][NMeR]SDTL[Pen][Phe(4-COOH)][β3hE][NMeK]-NH2; disulfide I:1-I:7, II:1-II:7; linker I:10-II:10 via Diglycolyl), in data set [1] (setting [4]), the half-life at 22 μM was over 5 h. The IC50 was 100 to 500 nM on α4β1 (setting [5]) and under 10 nM at rh integrin α4β7 (setting [6]).
As to `CC(=O)N[C@@H]1C(=O)N(C)[C@@H](CCCNC(=N)N)C(=O)N[C@@H](CO)C(=O)N[C@@H](CC(=O)O)C(=O)N[C@@H]([C@@H](C)O)C(=O)N[C@@H](CC(C)C)C(=O)N[C@H](C(=O)N[C@@H](Cc2c[nH]c3ccccc23)C(=O)N[C@@H](CCC(=O)O)C(=O)N[C@H](CCCCNC(=O)COCC(=O)NCCCC[C@@H](NC(=O)[C@H](CCC(=O)O)NC(=O)[C@H](Cc2c[nH]c3ccccc23)NC(=O)[C@H]2NC(=O)[C@H](CC(C)C)NC(=O)[C@H]([C@@H](C)O)NC(=O)[C@H](CC(=O)O)NC(=O)[C@H](CO)NC(=O)[C@H](CCCNC(=N)N)N(C)C(=O)[C@@H](NC(C)=O)C(C)(C)SSC2(C)C)C(N)=O)C(N)=O)C(C)(C)SSC1(C)C` [compound 67] (I: Ac-[Pen][NMeR]SDTL[Pen]WE[dK]-NH2 / II: Ac-[Pen][NMeR]SDTL[Pen]WE[dK]-NH2; disulfide I:1-I:7, II:1-II:7; linker I:10-II:10 via Diglycolyl), the half-life at 22 μM in data set [1] (setting [4]) was 2.02 h. In addition, the IC50 at α4β1 (setting [5]) was 100 to 500 nM; at rh integrin α4β7 (setting [6]) it was under 10 nM.
For `CC(=O)N[C@@H]1C(=O)N(C)[C@@H](CCCNC(=N)N)C(=O)N[C@@H](CO)C(=O)N[C@@H](CC(=O)O)C(=O)N[C@@H]([C@@H](C)O)C(=O)N[C@@H](CC(C)C)C(=O)N[C@H](C(=O)N[C@@H](Cc2ccc(C(C)(C)C)cc2)C(=O)N[C@@H](CCC(=O)O)CC(=O)N(C)[C@@H](CCCCNC(=O)COCC(=O)NCCCC[C@@H](C(N)=O)N(C)C(=O)C[C@H](CCC(=O)O)NC(=O)[C@H](Cc2ccc(C(C)(C)C)cc2)NC(=O)[C@H]2NC(=O)[C@H](CC(C)C)NC(=O)[C@H]([C@@H](C)O)NC(=O)[C@H](CC(=O)O)NC(=O)[C@H](CO)NC(=O)[C@H](CCCNC(=N)N)N(C)C(=O)[C@@H](NC(C)=O)C(C)(C)SSC2(C)C)C(N)=O)C(C)(C)SSC1(C)C` [compound 149] (I: Ac-[Pen][NMeR]SDTL[Pen][Phe(4-tBu)][β3hE][NMeK]-NH2 / II: Ac-[Pen][NMeR]SDTL[Pen][Phe(4-tBu)][β3hE][NMeK]-NH2; disulfide I:1-I:7, II:1-II:7; linker I:10-II:10 via Diglycolyl), in that order: over 5 h, 500 to 1000 nM and under 10 nM.
